Entries after “also recorded” stand apart in the source; their conditions may differ.
Tests used:
wild-type nematodes = experiment: Nile Red fat staining of wild-type nematodes (feeding RNAi screen; compound treatment); assay type: in vivo, C. elegans
[1] = system: daf-2(e1370) mutant nematodes; set-up: species or system C. elegans; conditions: in vivo
[2] = system: tub-1(nr2004) mutant nematodes; set-up: species or system C. elegans; conditions: in vivo
[3] = system: tph-1(mg280) mutant nematodes; experiment: Nile Red fat staining of tph-1(mg280) nematodes (RNAi epistasis analysis; compound treatment); assay type: in vivo, C. elegans; conditions: adult tph-1(mg280) nematodes, 500 μM
nematode progeny = experiment: Continuous AICAR treatment: growth and development of nematode progeny; conditions: relative to untreated control progeny
Protocol: Adult wild-type nematodes, daf-2 (e1370), tph-1(mg280), and tub-1(nr2004) mutant nematodes were treated with 500 μM AICAR, and their fat content was detected using Nile Red as described above. […] To determine whether the effects of AICAR were reversible, AICAR-treated nematodes were then moved to culture plates without AICAR. […] The effect of continuous AICAR treatment was tested by seeding AICAR plates with five hermaphrodites, and then monitoring the effect of AICAR on the growth and development of nematode progeny relative to untreated control progeny.

C. elegans = experiment: Growth rate, brood-size, pharyngeal pumping, dauer formation, dauer recovery and lifespan assays; conditions: concentrations between 0.001 μg/ml and 25 μg/ml
lpo-1 mutant nematodes = system: lpo-1 mutant nematodes; set-up: species or system C. elegans; conditions: in vivo

NC(=O)c1ncn([C@@H]2O[C@H](CO)[C@@H](O)[C@H]2O)c1N [AICAR, 5-aminoimidazole-4-carbozamide ribonucleoside]
time at which reduction in fat content was detectable (wild-type nematodes; 500 μM, wild-type and daf-2, tph-1, tub-1 mutant nematodes): twenty-four | fat content relative to untreated control nematodes (wild-type nematodes; adult wild-type nematodes, 500 μM): progressive reduction in fat content | reversibility of fat reduction (wild-type nematodes; treated nematodes moved to culture plates without AICAR): regained their fat content | fat content relative to untreated control nematodes [1]: progressive reduction in fat content | fat content relative to untreated control nematodes [2]: progressive reduction in fat content | fat content relative to untreated control nematodes [3]: progressive reduction in fat content | effect on growth and development of progeny (nematode progeny): dramatic retardation of larval growth accompanied by depleted fat stores

CCN(CC)c1ccc2nc3c4ccccc4c(=O)cc-3oc2c1 [Nile Red, 9-diethylamino-5H-benzo[α]phenoxazine-5-one]
adverse effects on growth rate, brood-size, pharyngeal pumping, dauer formation, dauer recovery, or lifespan (C. elegans): No adverse effects

CC[C@H](C)C(=O)O[C@H]1C[C@@H](C)C=C2C=C[C@H](C)[C@H](CC[C@@H]3C[C@@H](O)CC(=O)O3)[C@H]21 [mevinolin]
fat content / fat accumulation by Nile Red staining (lpo-1 mutant nematodes): reduced; also recorded: decreased fat accumulation

From US20070087378A1, “Polynucleotide and polypeptide fat metabolism regulators and uses thereof” (priority 2002, published 2007)
